Where two headings read alike, the source gives them in different places.
Molecular target: T1, Purine nucleoside phosphorylase (PNPase) (Homo sapiens, UniProt P00491)
T1 construct: Purine nucleoside phosphorylase (PNPase) was purified from human erythrocytes; from tissue; host or cells: human erythrocytes
T1 sequence (P00491 1-289): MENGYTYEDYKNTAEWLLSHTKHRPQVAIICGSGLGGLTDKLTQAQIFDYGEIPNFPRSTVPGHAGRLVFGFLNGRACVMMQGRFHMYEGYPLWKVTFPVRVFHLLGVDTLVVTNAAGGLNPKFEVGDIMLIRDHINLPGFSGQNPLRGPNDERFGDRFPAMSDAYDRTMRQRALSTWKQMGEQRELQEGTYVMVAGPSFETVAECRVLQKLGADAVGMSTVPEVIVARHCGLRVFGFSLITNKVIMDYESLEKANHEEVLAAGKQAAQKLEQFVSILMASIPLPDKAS
Test: Inhibition of purine nucleoside phosphorylase, spectrophotometric assay of inosine phosphorolysis coupled with xanthine oxidase
Type: biochemical
Procedure: Enzymology-Purine nucleoside phosphorylase (PNPase) was purified from human erythrocytes by the procedure of Agarwal et al (1). PNPase and xanthine oxidase were desalted before use (2). […] PNPase was assayed spectrophotometrically as previously described (2). In addition to PNPase, the reaction mixtures contained 0.1 mM inosine, 1 mM potassium phosphate, 100 mM Tris=HCl buffer (pH 7.5), 2µM ZnCl₂, and 0.2 U/ml of xanthine oxidase. […] The percent inhibition (%I) of PNP by a single concentration of inhibitor was measured (3).

[1] = apparent inhibition constant calculated from percent inhibition at a single inhibitor concentration assuming competitive inhibition, PNPase from human erythrocytes, 0.1 mM inosine, 1 mM potassium phosphate, pH 7.5, 2µM ZnCl₂, read-out: Ki

Structure (SMILES)	Ki [1] [nM]	Ki [nM]
Nc1nc(O)c2ncn(CCCCP(=O)(O)CP(=O)(O)O)c2n1 [Compound 2, (((4-(2-amino-1,6-dihydro-6-oxo-9H-purin-9-yl)butyl)phosphinico)methyl)phosphonic acid]	77	–
Nc1nc(O)c2ncn(CCCCCCCP(=O)(O)CP(=O)(O)O)c2n1 [Compound 4, (((7-(2-amino-1,6-dihydro-6-oxo-9H-purin-9-yl)heptyl)phosphinico)methyl)phosphonic acid]	8.3	–
CCOP(=O)(O)CP(=O)(O)CCCCCn1cnc2c(O)nc(N)nc21 [Compound 5, ethyl hydrogen (((5-(2-amino-1,6-dihydro-6-oxo-9H-purin-9-yl)pentyl)phosphinico)methyl)phosphonate]	–	870
Nc1nc2c(ncn2CCCOCP(=O)(O)CP(=O)(O)O)c(=O)[nH]1 [Compound 6, ((((3-(2-amino-1,6-dihydro-6-oxo-9H-purine-9-yl)propoxy)methyl)phosphinico)methyl)phosphonic acid]	4.5	–

— patent EP0478292A1, “Heterocyclic compounds” (THE WELLCOME FOUNDATION LIMITED, priority 1990, dated 1992)
